Data: ChEMBL document CHEMBL5380779, “Small Molecules Targeting the RNA-Binding Protein HuR Inhibit Tumor Growth in Xenografts” (J Med Chem, 2023)
The source made the active and inactive calls. No cut-off for these calls is given here.

How the values were obtained:
[1] = molecular target: Thrombospondin-1 (Homo sapiens) (UniProt P07996); assay: Inhibition of TGFbeta2-induced THBS1 protein expression in human MDA-MB-231 cells at 10 uM incubated for 48 hrs by Western blotting analysis; type: cell-based
[2] = molecular target: Thrombospondin-1 (Homo sapiens) (UniProt P07996); assay: Inhibition of TGFbeta1-induced THBS1 protein expression in human MDA-MB-231 cells at 10 uM incubated for 48 hrs by Western blotting analysis; type: cell-based
[3] = molecular target: ELAV-like protein 1 (Homo sapiens) (UniProt Q15717); assay: Inhibition of TGFbeta2-induced HuR protein expression in human MDA-MB-231 cells at 10 uM incubated for 48 hrs by Western blotting analysis; type: cell-based
[4] = tested on: MDA-MB-231; assay: Inhibition of HuR-TGFB2 mRNA binding in human MDA-MB-231 cells incubated for 6 hrs by RNP immunoprecipitation assay; type: cell-based
[5] = molecular target: RNA-binding protein Musashi homolog 2 (Homo sapiens) (UniProt Q96DH6); assay: Inhibition of TGFbeta2-induced Msi2 protein expression in human MDA-MB-231 cells at 10 uM incubated for 48 hrs by Western blotting analysis; type: cell-based
[6] = molecular target: ELAV-like protein 1 (Homo sapiens) (UniProt Q15717); assay: Inhibition of TGFbeta1-induced HuR protein expression in human MDA-MB-231 cells at 10 uM incubated for 48 hrs by Western blotting analysis; type: cell-based
[7] = molecular target: RNA-binding protein Musashi homolog 2 (Homo sapiens) (UniProt Q96DH6); assay: Inhibition of TGFbeta1-induced Msi2 protein expression in human MDA-MB-231 cells at 10 uM incubated for 48 hrs by Western blotting analysis; type: cell-based
[8] = tested on: MDA-MB-231; assay: Cytotoxicity against human MDA-MB-231 cells assessed as inhibition of cell growth by MTT assay; type: functional, cell-based
[9] = Inhibition of full-length HuR-ARE fluorescein-labeled Msi1 mRNA binding (unknown origin) incubated for 2 hrs by fluorescence polarization assay; parameters: species or system Homo sapiens
[10] = tested on: MDA-MB-231; assay: Cytotoxicity against HuR knockout 1 human MDA-MB-231 cells assessed as inhibition of cell growth by MTT assay (reference value: 5.320 uM); type: functional, cell-based
[11] = tested on: MDA-MB-231; assay: Cytotoxicity against HuR knockout 2 human MDA-MB-231 cells assessed as inhibition of cell growth by MTT assay (reference value: 5.320 uM); type: functional, cell-based
[12] = molecular target: ELAV-like protein 1 (Homo sapiens) (UniProt Q15717); assay: Thermal stabilization of HuR in human MDA-MB-231 cells at 20 uM at 42 to 54 degreeC incubated for 1 hr by western blot based cellular thermal shift assay; type: cell-based
[13] = tested on: MDA-MB-231; assay: Inhibition of HuR-Bcl-2 mRNA binding in human MDA-MB-231 cells at 10 uM incubated for 6 hrs by RNP immunoprecipitation assay; type: cell-based
[14] = tested on: MDA-MB-231; assay: Inhibition of HuR-Msi2 mRNA binding in human MDA-MB-231 cells at 10 uM incubated for 6 hrs by RNP immunoprecipitation assay; type: cell-based
[15] = tested on: MDA-MB-231; assay: Inhibition of HuR-XIAP mRNA binding in human MDA-MB-231 cells at 10 uM incubated for 6 hrs by RNP immunoprecipitation assay; type: cell-based
[16] = tested on: MDA-MB-231; assay: Inhibition of HuR-16-nt biotinylated ARE Msi1 mRNA binding in human MDA-MB-231 cells at 20 uM by Western blotting analysis based pull-down assay; type: cell-based
[17] = tested on: MDA-MB-231; assay: Downregulation of Bcl-2 protein expression in human MDA-MB-231 cells incubated for 48 hrs by Western blotting analysis; type: functional, cell-based; conditions: dose 5-10 µM
[18] = tested on: MDA-MB-231; assay: Downregulation of Msi2 protein expression in human MDA-MB-231 cells incubated for 48 hrs by Western blotting analysis; type: functional, cell-based; conditions: dose 5-10 µM
[19] = tested on: MDA-MB-231; assay: Downregulation of XIAP protein expression in human MDA-MB-231 cells incubated for 48 hrs by Western blotting analysis; type: functional, cell-based; conditions: dose 5-10 µM
[20] = tested on: MDA-MB-231; assay: Downregulation of HuR protein expression in human MDA-MB-231 cells at 5 to 10 uM incubated for 48 hrs by Western blotting analysis; type: functional, cell-based; conditions: dose 5-10 µM
[21] = tested on: MDA-MB-231; assay: Inhibition of cell invasion of human MDA-MB-231 cells at 10 uM incubated for 24 hrs by crystal violet staining based analysis; type: functional
[22] = tested on: MDA-MB-231; assay: Inhibition of HuR-TGFB2 mRNA binding in human MDA-MB-231 cells assessed as half life of TGFB2 in presence of actinomycin D (reference value: 7.202 hrs); type: cell-based
[23] = Antitumor activity against human 2LMP cells xenografted athymic NCr-nu/nu mouse assessed as tumor growth inhibition at 50 mg/kg, ip administered 5 times a week for 3 weeks; type: functional; conditions: 504 h, read-out: TGI
[24] = Toxicity in athymic NCr-nu/nu mouse xenografted with human 2LMP cells assessed as effect on body weight gain at 50 mg/kg, ip administered 5 times a week for 3 weeks; type: organism-based; conditions: in vivo, 504 h
[25] = tested on: MDA-MB-231; assay: Antitumor activity against human MDA-MB-231 cells xenografted athymic NCr-nu/nu mouse assessed as reduction in tumor size at 50 mg/kg, ip administered 5 times a week for 3 weeks; type: functional, organism-based
[26] = tested on: MDA-MB-231; assay: Antitumor activity against human MDA-MB-231 cells xenografted athymic NCr-nu/nu mouse assessed as reduction in tumor size at 50 mg/kg, ip administered 5 times a week for 3 weeks in presence of docetaxel; type: functional, organism-based
[27] = tested on: MDA-MB-231; assay: Antitumor activity against human MDA-MB-231 cells xenografted athymic NCr-nu/nu mouse assessed as tumor growth delay by measuring tumor size at 400 mm^3 at 50 mg/kg, ip administered 5 times a week for 3 weeks (reference value: 15 days); type: functional
[28] = tested on: MDA-MB-231; assay: Antitumor activity against human MDA-MB-231 cells xenografted athymic NCr-nu/nu mouse assessed as tumor growth delay by measuring tumor size at 400 mm^3 at 50 mg/kg, ip administered 5 times a week for 3 weeks in presence of docetaxel (reference value: 15 days); type: functional
[29] = tested on: MDA-MB-231; assay: Inhibition of HuR-THBS1 mRNA binding in human MDA-MB-231 cells incubated for 6 hrs by RNP immunoprecipitation assay; type: cell-based
[30] = tested on: MDA-MB-231; assay: Inhibition of HuR-THBS1 mRNA binding in human MDA-MB-231 cells assessed as half life of THBS1 in presence of actinomycin D (reference value: 10.46 hrs); type: cell-based
[31] = tested on: MDA-MB-231; assay: Downregulation of TGFB2 mRNA expression in human MDA-MB-231 cells transfected with THBS1-ORF at 5 to 10 uM incubated for 24 hrs; type: functional, cell-based; conditions: dose 5-10 µM

Chain of ELAV-like protein 1 (Homo sapiens) (Q15717 whole entry): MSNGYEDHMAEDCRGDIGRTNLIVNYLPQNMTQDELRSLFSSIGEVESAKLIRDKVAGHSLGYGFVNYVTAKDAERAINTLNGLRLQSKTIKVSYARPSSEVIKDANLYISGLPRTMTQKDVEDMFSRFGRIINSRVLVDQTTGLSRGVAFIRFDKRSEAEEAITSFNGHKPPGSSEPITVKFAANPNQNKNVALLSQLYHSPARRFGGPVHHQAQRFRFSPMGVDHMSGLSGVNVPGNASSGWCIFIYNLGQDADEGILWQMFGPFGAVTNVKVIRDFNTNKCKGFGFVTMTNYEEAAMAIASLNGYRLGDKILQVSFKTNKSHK
Chain of RNA-binding protein Musashi homolog 2 (Homo sapiens) (Q96DH6 whole entry): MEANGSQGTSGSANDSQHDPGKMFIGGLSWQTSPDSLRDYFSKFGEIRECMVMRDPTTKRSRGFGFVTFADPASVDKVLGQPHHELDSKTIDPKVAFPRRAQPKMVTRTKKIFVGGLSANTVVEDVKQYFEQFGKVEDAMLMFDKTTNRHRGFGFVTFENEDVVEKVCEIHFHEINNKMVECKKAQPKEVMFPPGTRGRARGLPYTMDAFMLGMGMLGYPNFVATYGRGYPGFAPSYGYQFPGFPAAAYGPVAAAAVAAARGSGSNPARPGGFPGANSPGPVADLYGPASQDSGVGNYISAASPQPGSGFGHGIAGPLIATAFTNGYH
Chain of Thrombospondin-1 (Homo sapiens) (P07996 19-1170 limits assumed): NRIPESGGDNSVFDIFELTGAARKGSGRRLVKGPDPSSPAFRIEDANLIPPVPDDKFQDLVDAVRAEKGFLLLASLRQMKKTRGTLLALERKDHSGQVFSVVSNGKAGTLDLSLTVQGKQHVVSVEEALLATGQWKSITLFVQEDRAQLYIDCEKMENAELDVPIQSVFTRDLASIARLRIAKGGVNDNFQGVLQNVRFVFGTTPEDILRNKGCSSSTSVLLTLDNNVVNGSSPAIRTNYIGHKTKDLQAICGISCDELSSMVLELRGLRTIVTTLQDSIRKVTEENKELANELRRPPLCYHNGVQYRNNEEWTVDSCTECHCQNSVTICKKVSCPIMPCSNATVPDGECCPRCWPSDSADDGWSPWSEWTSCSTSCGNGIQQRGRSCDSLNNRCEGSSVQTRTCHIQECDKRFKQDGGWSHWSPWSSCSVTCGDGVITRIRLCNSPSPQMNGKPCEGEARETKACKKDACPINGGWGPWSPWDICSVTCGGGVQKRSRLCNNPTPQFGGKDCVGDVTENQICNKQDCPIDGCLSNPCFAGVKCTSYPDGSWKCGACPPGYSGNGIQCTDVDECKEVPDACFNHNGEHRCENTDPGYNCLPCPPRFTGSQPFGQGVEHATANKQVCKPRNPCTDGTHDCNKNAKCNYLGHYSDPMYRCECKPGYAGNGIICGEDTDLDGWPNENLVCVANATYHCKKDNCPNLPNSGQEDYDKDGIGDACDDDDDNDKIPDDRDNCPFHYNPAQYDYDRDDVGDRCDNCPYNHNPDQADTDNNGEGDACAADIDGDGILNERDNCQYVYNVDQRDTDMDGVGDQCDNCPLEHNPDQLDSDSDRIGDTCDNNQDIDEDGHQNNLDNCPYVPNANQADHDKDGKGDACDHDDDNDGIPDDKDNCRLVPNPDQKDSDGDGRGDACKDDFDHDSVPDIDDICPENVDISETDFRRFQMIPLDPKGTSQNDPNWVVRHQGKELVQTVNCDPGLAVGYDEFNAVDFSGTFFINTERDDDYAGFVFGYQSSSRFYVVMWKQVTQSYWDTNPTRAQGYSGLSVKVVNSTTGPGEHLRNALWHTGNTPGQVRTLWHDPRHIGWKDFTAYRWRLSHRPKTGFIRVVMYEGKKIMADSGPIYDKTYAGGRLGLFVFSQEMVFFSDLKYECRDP

inhibition [1]: Active
inhibition [2]: Active
inhibition [3]: Active
inhibition [5]: Active
inhibition [6]: Active
inhibition [7]: Active
IC50 [9]: 2.77 µM
Ki [9]: 0.65 µM
Activity [12]: Active
SMILES: CC(C)(C)c1ccc(C(=O)Nc2ccc3[nH]c(C(=O)NO)cc3c2)cc1
inhibition [4]: Active
IC50 [8]: 4.74 µM
IC50 [10]: 16.1 µM
IC50 [11]: 12.5 µM
inhibition [13]: Active
inhibition [14]: Active
inhibition [15]: Active
inhibition [16]: Active
Activity [17]: Dose-Dependent Effect
Activity [18]: Dose-Dependent Effect
Activity [19]: Dose-Dependent Effect
Activity [20]: inactive
inhibition [21]: Active
T1/2 [22]: 4.76 h
inhibition in vivo at 50 mg/kg [23]: 35%
Activity [24]: Non-Toxic
Activity [25]: Active
Activity [26]: Active
Time [27]: 18 days
Time [28]: 32 days
inhibition [29]: Active
T1/2 [30]: 6.15 h
Activity [31]: Active
